In patent publication US20250188032A1, “NITROGEN-CONTAINING HETEROCYCLIC COMPOUNDS AND USES THEREOF” (BNH RESEARCH CO., LTD., priority 2022, published 2025):
“And” between values parts separate entries of the source, which are not always exact repeats. Equal entries are not always repeated.

Key:
[1] = test system: 293T cells; assay: Cytotoxicity test (CCK-8 cell viability) in 293T cells; assay type: cell-based, human; conditions: 24 hours co-incubation, 293T cell line, % of control
Protocol: Human undifferentiated neuroblastoma cell line SH-SY5Y and human embryonic kidney cell line (HEK)-293T were purchased from Korean Cell Line Bank (Korea) and Takara (Japan), respectively. Cells were grown in HyClone Minimal Essential Medium (MEM) and Dulbecco's Modified Eagle Medium (DMEM), respectively, supplemented with 10% (v/v) fetal bovine serum (FBS), penicillin (100 U/mL), and streptomycin ([…]). Cells were maintained in a humidified atmosphere of 95% air and 5% CO2 at 37° C. Cells were passaged 10 times at maximum. Cells were dissociated using 0.05% trypsin-EDTA solution and the cells were seeded in new culture dishes for maintenance.
To examine the cytotoxicity of compounds described herein in human cell lines, SH-SY5Y and 293T cells were used. Approximately 8,000 cells (for 293T) and 15,000 cells (for SH-SY5Y) were plated per well of a 96-well plate (SPL Life Sciences Co., Ltd., Pocheon, Korea). After incubating at 37° C. for 24 hours in a humidified atmosphere containing 5% CO2, the culture medium was replaced by a series of concentrations of test compounds diluted in the corresponding culture medium. The time of co-incubation was 24 hours and six replicates were made for each measurement. Finally, 10 μL of CCK-8 reagent (Dojindo Laboratories, Rockville, MD) was added to each well, and after incubation at 37° C. for 3 minutes, the OD at 450 nm was measured using a multifunction microplate reader (Tecan Infinite M200 Pro). These measurements were compared to that of a control and expressed as a percentage of the control to calculate cell viability. The IC50 value was calculated using SPSS software. To do this, the absorbance of the blank wells with only growth medium is subtracted from the values or the wells with cells. The readout value of background (vehicle) was set as a 100% viability, and then the percent viability for each test solution was calculated.
Cell viability (%)=[(As-Ab)/(Ac-Ab)]×100
The data was presented as the mean value and standard error of the mean (S.E.M.). Statistical analysis was performed with the one-way ANOVA with Tukey's post hoc test (GraphPad Prism 5 software package, version 5.02, GraphPad Software Inc. USA). Significance was accepted at p<0.05.

[2] = test system: GluN2B; assay: Western blot of GluN2B protein in cultured fetal cortical cells; assay type: cell-based, mice; conditions: for Effect on GluN2B expression compared to the vehicle: comment on Table 6; for GluN2B expression, Western blot results, Mean: relative value, vehicle set to 1, treated for 24 hours, N 3 or more
Protocol: The amount of GluN2B reacted with the compound of the present disclosure was measured using Western blot. The fetal cerebral cortex was extracted from mice at 17 days of gestation, dissociated into single cells, cultured for 13 days, and treated with BnH drugs for 24 hours. The drug-treated cells were subjected to protein lysate preparation using RIPA protein lysis buffer containing protease and phosphatase inhibitors. The protein concentration was determined using a BCA protein assay kit (Pierce Biotechnology) using bovine serum albumin as a standard. Equal amounts of protein (20 μg per lane) were separated by electrophoresis on SDS-polyacrylamide gels at 90 V for 2 hours, then transferred from the SDS-polyacrylamide gel to PVDF membrane at 100 V for 1 hour. Then, primary reaction with GluN2B antibody (ab65783, Abcam) was performed at 4° C. for 1 day, washed three times at 10-minutes intervals with 1×PBT, and secondary reaction was performed with anti-mouse antibody (sc-2357, Santa Cruz) for 1 hour, followed by washing three times at 10-minutes intervals with 1×PBT. Western blotting was performed as described above to confirm GluN2B protein expression. Subsequently, each blot was re-probed using anti-β-actin antibody (sc-47778, Santa Cruz). Housekeeping protein β-actin was detected as a normalization control.
The increase and decrease of BnH12 series were confirmed by setting the vehicle to 1 (N for each group was 3 or more).
Using the experimental procedure described in Example 3, it was determined whether various BnH12 series compounds increase GluN2B expression, and the results are shown in Table 6. These in vitro experimental results are expressed as relative values to the group (vehicle) that was not treated with the compound, with the effect of the group set to 1.

`C[C@H]1CCCCN1C(=O)Cc1ccccc1` [BnH12061, (S)-1-(2-methylpiperidin-1-yl)-2-phenylethan-1-one] was tested, and the “Cell viability test results (CCK) 10 uM” value [1] was 95%<, the “Cell viability test results (CCK) 100 uM” value [1] was 95%< and the “Effect on GluN2B expression compared to the vehicle” value (shortened to “Effect … compared to the vehicle”) [2] was “excellent effects”. The “GluN2B expression, Western blot results, Mean” value (“GluN2B expression … Mean” below) [2] was 1.683.
`COc1ccc(CC(=O)N2C[C@@H](C(=O)O)CC[C@H]2C)cc1` [BnH12063, (3S,6R)-1-(2-(4-methoxyphenyl)acetyl)-6-methylpiperidine-3-carboxylic acid] was tested, and the “Cell viability test results (CCK) 10 uM” value [1] was 95%<, the “Cell viability test results (CCK) 100 uM” value [1] was 95%< and the “Effect … compared to the vehicle” value [2] was “excellent effects”. The “GluN2B expression … Mean” value [2] was 1.652.
For `C[C@H]1CC[C@@H](C(=O)O)CN1C(=O)c1ccccc1` [BnH12065, (3R,6S)-1-benzoyl-6-methylpiperidine-3-carboxylic acid], the “Cell viability test results (CCK) 10 uM” value [1] was 95%<, the “Cell viability test results (CCK) 100 uM” value [1] was 95%< and the “GluN2B expression … Mean” value [2] was 1.326.
With `C[C@H]1CC[C@@H](C(=O)O)CN1C(=O)Cc1ccc([N+](=O)[O-])cc1` [BnH12069, (3R,6S)-6-methyl-1-(2-(4-nitrophenyl)acetyl)piperidine-3-carboxylic acid] the “Cell viability test results (CCK) 10 uM” value [1] was 95%< and 80%<, the “Cell viability test results (CCK) 100 uM” value [1] was 95%< and 80%< and the “Effect … compared to the vehicle” value [2] was “excellent effects”. For the same compound, the “GluN2B expression … Mean” value [2] was 1.993.
`C[C@H]1CC[C@@H](C(=O)O)CN1C(=O)Cc1ccc(N)cc1` [BnH12070, (3R,6S)-1-(2-(4-aminophenyl)acetyl)-6-methylpiperidine-3-carboxylic acid] was tested, and the “Cell viability test results (CCK) 10 uM” value [1] was 99%<, the “Cell viability test results (CCK) 100 uM” value [1] was 90%< and the “GluN2B expression … Mean” value [2] was 1.302.
For `C[C@H]1CC[C@@H](C(=O)O)CN1C(=O)Cc1cccc([N+](=O)[O-])c1` [BnH12073, (3R,6S)-6-methyl-1-(2-(3-nitrophenyl)acetyl)piperidine-3-carboxylic acid], the “Cell viability test results (CCK) 10 uM” value [1] was 85%<, the “Cell viability test results (CCK) 100 uM” value [1] was 85%< and the “Effect … compared to the vehicle” value [2] was “excellent effects”. For the same compound, the “GluN2B expression … Mean” value [2] was 2.013.
For `C[C@H]1CC[C@@H](C(=O)O)CN1C(=O)Cc1cccc(N)c1` [BnH12074, (3R,6S)-1(2-(3-aminophenyl)acetyl)-6-methylpiperidine-3-carboxylic acid], the “Cell viability test results (CCK) 10 uM” value [1] was 85%<, the “Cell viability test results (CCK) 100 uM” value [1] was 80%< and the “Effect … compared to the vehicle” value [2] was “excellent effects”. The “GluN2B expression … Mean” value [2] was 2.146.
For `C[C@H]1CC[C@@H](C(=O)O)CN1C(=O)Cc1ccc(O)cc1` [BnH12079, (3R,6S)-1-(2-(4-hydroxyphenyl)acetyl)-6-methylpiperidine-3-carboxylic acid], the “Cell viability test results (CCK) 10 uM” value [1] was 99%<, the “Cell viability test results (CCK) 100 uM” value [1] was 90%< and the “GluN2B expression … Mean” value [2] was 1.062.
In the case of `CC(C)C1CCC(C(=O)O)CN1C(=O)Cc1ccc(F)cc1Cl` (stereo not drawn) [BnH12096, 1-(2-(2-chloro-4-fluorophenyl)acetyl)-6-isopropylpiperidine-3-carboxylic acid], the “Cell viability test results (CCK) 10 uM” value [1] is reported as 70%<, the “Cell viability test results (CCK) 100 uM” value [1] is reported as 65%< and the “Effect … compared to the vehicle” value [2] is reported as “excellent effects”. The “GluN2B expression … Mean” value [2] was 2.848.
